Test results from US10670605B2, “Cysteine reactive probes and uses thereof” (The Scripps Research Institute, priority 2015, dated 2020).

Tests used:
Assay in all cases: Competitive isoTOP-ABPP in situ (fragment-treated cells)
Format in all cases: cell-based
[1] = biological target: T1, cysteines in MDA-MB-231 and Ramos cells (Homo sapiens, UniProt P30101)
T1 sequence (P30101 25-505): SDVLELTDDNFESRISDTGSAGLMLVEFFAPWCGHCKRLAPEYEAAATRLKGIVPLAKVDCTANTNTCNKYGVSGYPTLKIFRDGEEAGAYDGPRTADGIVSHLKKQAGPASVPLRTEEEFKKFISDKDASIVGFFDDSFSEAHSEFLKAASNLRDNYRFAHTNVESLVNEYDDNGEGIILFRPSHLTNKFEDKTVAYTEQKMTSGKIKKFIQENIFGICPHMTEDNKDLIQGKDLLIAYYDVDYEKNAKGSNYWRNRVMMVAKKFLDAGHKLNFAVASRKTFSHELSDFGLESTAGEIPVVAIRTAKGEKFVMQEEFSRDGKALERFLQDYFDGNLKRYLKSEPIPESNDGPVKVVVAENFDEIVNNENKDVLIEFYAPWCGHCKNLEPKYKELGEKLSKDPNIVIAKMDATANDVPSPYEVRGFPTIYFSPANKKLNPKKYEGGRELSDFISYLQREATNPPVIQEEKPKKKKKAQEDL

[2] = biological target: T2, cysteines in MDA-MB-231 and Ramos cells (Homo sapiens, UniProt P13667)
T2 sequence (P13667 21-645): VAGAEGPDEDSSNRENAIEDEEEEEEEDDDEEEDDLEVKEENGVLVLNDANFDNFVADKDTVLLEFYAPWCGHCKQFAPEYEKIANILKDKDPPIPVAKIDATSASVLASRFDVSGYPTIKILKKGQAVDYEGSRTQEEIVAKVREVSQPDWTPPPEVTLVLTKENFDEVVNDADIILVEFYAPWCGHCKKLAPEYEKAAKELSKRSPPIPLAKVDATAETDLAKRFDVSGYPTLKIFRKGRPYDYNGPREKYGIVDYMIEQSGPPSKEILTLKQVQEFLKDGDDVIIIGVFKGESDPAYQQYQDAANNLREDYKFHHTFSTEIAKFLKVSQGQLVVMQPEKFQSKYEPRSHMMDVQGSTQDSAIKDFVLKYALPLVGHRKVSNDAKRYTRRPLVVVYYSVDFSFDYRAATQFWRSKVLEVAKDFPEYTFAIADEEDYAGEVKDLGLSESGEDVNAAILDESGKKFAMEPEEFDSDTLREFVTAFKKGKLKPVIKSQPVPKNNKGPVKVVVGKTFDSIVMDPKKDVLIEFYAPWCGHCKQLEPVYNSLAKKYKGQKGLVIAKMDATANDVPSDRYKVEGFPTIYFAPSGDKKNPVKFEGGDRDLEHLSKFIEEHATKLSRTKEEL

[3] = biological target: cysteines in MDA-MB-231 and Ramos cells (Homo sapiens, UniProt Q15021)
Chain of cysteines in MDA-MB-231 and Ramos cells (Homo sapiens, UniProt Q15021) (Q15021 whole entry): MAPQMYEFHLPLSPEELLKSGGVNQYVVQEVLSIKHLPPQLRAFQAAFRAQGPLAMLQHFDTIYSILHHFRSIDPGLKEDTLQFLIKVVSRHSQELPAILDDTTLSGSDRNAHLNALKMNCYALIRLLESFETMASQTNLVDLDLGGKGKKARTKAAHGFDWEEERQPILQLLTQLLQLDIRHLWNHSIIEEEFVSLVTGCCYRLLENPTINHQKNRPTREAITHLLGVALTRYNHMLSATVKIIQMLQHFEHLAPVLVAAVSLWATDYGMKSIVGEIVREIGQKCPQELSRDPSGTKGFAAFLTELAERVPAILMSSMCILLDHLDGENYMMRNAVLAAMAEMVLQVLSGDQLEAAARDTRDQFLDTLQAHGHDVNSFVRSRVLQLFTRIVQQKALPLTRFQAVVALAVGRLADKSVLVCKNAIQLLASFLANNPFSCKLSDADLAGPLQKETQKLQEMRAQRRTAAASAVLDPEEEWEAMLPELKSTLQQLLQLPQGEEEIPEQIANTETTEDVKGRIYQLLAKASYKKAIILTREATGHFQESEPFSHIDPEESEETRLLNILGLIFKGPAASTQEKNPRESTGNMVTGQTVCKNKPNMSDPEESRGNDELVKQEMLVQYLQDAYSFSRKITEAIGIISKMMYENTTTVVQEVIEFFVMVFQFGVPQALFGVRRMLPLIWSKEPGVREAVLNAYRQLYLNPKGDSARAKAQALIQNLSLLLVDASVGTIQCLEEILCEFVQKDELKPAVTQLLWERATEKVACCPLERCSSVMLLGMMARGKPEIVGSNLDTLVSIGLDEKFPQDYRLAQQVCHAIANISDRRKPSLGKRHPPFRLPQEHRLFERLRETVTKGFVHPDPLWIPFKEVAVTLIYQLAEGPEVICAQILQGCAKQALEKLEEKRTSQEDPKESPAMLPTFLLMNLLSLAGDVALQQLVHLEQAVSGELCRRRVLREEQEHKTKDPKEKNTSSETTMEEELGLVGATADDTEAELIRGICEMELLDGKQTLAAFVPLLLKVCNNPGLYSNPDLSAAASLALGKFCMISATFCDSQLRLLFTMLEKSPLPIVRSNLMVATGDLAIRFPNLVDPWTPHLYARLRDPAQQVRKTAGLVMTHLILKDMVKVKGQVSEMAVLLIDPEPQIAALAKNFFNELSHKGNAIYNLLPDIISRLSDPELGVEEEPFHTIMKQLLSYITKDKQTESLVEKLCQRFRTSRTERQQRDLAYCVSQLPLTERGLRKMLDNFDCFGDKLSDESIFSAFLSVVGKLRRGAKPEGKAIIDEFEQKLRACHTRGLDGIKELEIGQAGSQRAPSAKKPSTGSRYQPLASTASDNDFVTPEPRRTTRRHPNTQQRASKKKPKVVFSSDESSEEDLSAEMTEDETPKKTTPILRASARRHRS

[4] = biological target: T3, cysteines in MDA-MB-231 and Ramos cells (Homo sapiens, UniProt Q13418)
T3 sequence (Q13418 1-452): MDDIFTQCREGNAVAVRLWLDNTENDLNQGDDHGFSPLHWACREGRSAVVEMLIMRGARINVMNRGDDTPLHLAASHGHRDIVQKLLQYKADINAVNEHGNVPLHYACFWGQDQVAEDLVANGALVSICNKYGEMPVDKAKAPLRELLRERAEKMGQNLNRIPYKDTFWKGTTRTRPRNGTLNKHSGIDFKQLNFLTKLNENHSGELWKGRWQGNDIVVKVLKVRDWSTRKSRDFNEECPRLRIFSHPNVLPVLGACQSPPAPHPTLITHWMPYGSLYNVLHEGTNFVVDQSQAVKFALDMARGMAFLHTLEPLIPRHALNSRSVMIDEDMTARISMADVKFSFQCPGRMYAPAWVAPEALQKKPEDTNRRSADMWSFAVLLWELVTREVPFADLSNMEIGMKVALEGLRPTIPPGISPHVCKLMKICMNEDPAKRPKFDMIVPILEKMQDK

[5] = biological target: T4, cysteines in MDA-MB-231 and Ramos cells (Homo sapiens, UniProt Q9BTA9)
T4 sequence (Q9BTA9 1-647): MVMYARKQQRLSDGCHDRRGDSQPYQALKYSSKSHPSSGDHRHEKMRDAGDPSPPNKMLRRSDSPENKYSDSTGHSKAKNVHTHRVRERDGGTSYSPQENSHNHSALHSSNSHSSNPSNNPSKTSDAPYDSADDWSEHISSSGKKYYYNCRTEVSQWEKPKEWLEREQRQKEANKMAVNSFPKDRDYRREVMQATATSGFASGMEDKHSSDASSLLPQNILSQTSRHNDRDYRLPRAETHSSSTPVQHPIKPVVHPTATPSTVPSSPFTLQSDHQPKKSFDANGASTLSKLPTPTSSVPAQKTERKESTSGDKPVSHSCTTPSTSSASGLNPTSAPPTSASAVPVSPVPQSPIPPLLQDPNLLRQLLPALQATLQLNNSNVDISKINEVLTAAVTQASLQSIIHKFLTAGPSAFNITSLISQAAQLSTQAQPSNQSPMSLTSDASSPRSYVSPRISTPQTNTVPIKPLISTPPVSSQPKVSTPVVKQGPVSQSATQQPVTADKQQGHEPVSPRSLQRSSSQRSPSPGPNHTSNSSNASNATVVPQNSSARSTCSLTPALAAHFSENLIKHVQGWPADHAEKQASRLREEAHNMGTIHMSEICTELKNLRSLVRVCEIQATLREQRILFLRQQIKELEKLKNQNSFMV

[6] = biological target: T5, cysteines in MDA-MB-231 and Ramos cells (Homo sapiens, UniProt Q96AB3)
T5 sequence (Q96AB3 1-205): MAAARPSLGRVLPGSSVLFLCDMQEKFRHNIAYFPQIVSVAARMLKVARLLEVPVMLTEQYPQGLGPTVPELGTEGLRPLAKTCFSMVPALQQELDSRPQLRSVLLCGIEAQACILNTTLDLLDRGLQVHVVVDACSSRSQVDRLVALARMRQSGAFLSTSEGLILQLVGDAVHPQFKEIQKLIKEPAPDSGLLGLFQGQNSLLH

[7] = biological target: T6, cysteines in MDA-MB-231 and Ramos cells (Homo sapiens, UniProt Q9BVC5)
T6 sequence (Q9BVC5 1-232): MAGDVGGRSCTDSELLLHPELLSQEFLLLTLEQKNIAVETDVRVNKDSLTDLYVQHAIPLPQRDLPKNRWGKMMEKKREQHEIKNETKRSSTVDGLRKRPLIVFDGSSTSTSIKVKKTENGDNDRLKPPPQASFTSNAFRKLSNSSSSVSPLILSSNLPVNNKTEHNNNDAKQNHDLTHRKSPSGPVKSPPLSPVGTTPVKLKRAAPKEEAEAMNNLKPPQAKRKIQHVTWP

| isoTOP-ABPP ratio P30101_C57 ([1]; 200 μM, insitu, 231) | isoTOP-ABPP ratio P30101_C406 ([1]; 200 μM, insitu, 231) | isoTOP-ABPP ratio P13667_C206 ([2]; 200 μM, insitu, 231) | isoTOP-ABPP ratio P13667_C555 ([2]; 200 μM, insitu, 231) | isoTOP-ABPP ratio Q15021_C439 ([3]; 200 μM, insitu, 231) | isoTOP-ABPP ratio Q13418_C346 ([4]; 200 μM, insitu, 231) | isoTOP-ABPP ratio Q9BTA9_C553 ([5]; 200 μM, insitu, 231) | isoTOP-ABPP ratio Q96AB3_C114 ([6]; 200 μM, insitu, 231) | isoTOP-ABPP ratio Q9BVC5_C10 ([7]; 200 μM, insitu, 231) | isoTOP-ABPP reactivity P30101_057 PDIA3 ([1]; 100 μM in situ 231) | isoTOP-ABPP reactivity P30101_C406 PDIA3 ([1]; 100 μM in situ 231) | isoTOP-ABPP reactivity P13667_C206 PDIA4 ([2]; 100 μM in situ 231) | isoTOP-ABPP reactivity P13667_C555 PDIA4 ([2]; 100 μM in situ 231) | isoTOP-ABPP reactivity Q15021_C439 NCAPD2 ([3]; 100 μM in situ 231) | isoTOP-ABPP reactivity Q13418_C346 ILK ([4]; 100 μM in situ 231) | isoTOP-ABPP reactivity Q9BTA9_0553 WAC ([5]; 100 μM in situ 231) | isoTOP-ABPP reactivity Q96AB3_C114 ISOC2 ([6]; 100 μM in situ 231) | isoTOP-ABPP reactivity Q9BVC5_C10 C2orf49 ([7]; 100 μM in situ 231) | Compound |
| --- | --- | --- | --- | --- | --- | --- | --- | --- | --- | --- | --- | --- | --- | --- | --- | --- | --- | --- |
| 0.9 | 0.8 | 0.9 | 0.8 | 1.1 | 1.0 | 1.1 | 1.2 | 0.9 |  |  |  |  |  |  |  |  |  | C=CC(=O)Nc1cc(F)c(N2CCN(C(=O)OC(C)(C)C)CC2)c(F)c1 [compound 38] |
|  |  |  |  |  |  |  |  |  | 20.0 | 9.0 | 6.8 | 9.0 | 2.2 | 0.8 | 17.8 | 0.8 | 3.3 | COc1ccc(C2CC(c3cccs3)=NN2C(=O)CCl)cc1 (stereo not drawn) [compound 4] |
